Measurements: the NIST ThermoML archive (doi:10.1016/j.jct.2017.08.024)
± gives the expanded uncertainty stated by the source.

Columns and labels:
[1] = for surface tension liquid-gas: wilhelmy plate; for viscosity: 101.33 kPa, Liquid, Concentric cylinders viscometry
[2] = wn = mass fraction of the nth substance listed; conditions: for surface tension liquid-gas: wilhelmy plate; for viscosity: 101 kPa, Liquid, Concentric cylinders viscometry

## NCCO [2-aminoethan-1-ol]
[1]; 303.2 K
  surface tension liquid-gas: 47.7 ± 0.6 mN/m
  viscosity: 14.47 ± 0.45 mPa·s
[1]; 313.2 K
  surface tension liquid-gas: 45.9 ± 0.6 mN/m
  viscosity: 9.87 ± 0.15 mPa·s
[1]; 323.2 K
  surface tension liquid-gas: 44.2 ± 0.6 mN/m
  viscosity: 6.79 ± 0.14 mPa·s

## NCCO [2-aminoethan-1-ol] + O
[2]; 303.2 K, w1 = 0.2
  surface tension liquid-gas: 62.1 ± 0.6 mN/m
  viscosity: 1.51 ± 0.12 mPa·s
[2]; 303.2 K, w1 = 0.3
  surface tension liquid-gas: 59.7 ± 0.6 mN/m
  viscosity: 2.11 ± 0.13 mPa·s
[2]; 303.2 K, w1 = 0.4
  surface tension liquid-gas: 57.8 ± 0.6 mN/m
  viscosity: 3.12 ± 0.13 mPa·s
[2]; 303.2 K, w1 = 1
  surface tension liquid-gas: 47.7 ± 0.6 mN/m
  viscosity: 14.47 ± 0.45 mPa·s
[2]; 313.2 K, w1 = 0.2
  surface tension liquid-gas: 60.4 ± 0.6 mN/m
  viscosity: 1.18 ± 0.12 mPa·s
[2]; 313.2 K, w1 = 0.3
  surface tension liquid-gas: 58.4 ± 0.6 mN/m
  viscosity: 1.63 ± 0.12 mPa·s
[2]; 313.2 K, w1 = 0.4
  surface tension liquid-gas: 56.3 ± 0.6 mN/m
  viscosity: 2.29 ± 0.13 mPa·s
[2]; 313.2 K, w1 = 1
  surface tension liquid-gas: 45.9 ± 0.6 mN/m
  viscosity: 9.87 ± 0.15 mPa·s
[2]; 323.2 K, w1 = 0.2
  surface tension liquid-gas: 58.9 ± 0.6 mN/m
  viscosity: 0.97 ± 0.12 mPa·s
[2]; 323.2 K, w1 = 0.3
  surface tension liquid-gas: 56.4 ± 0.6 mN/m
  viscosity: 1.31 ± 0.12 mPa·s
[2]; 323.2 K, w1 = 0.4
  surface tension liquid-gas: 54.6 ± 0.6 mN/m
  viscosity: 1.79 ± 0.12 mPa·s
[2]; 323.2 K, w1 = 1
  surface tension liquid-gas: 44.2 ± 0.6 mN/m
  viscosity: 6.79 ± 0.14 mPa·s

## OCCNCCO [diethanolamine]
[1]; 303.2 K
  surface tension liquid-gas: 46 ± 0.6 mN/m
  viscosity: 381.21 ± 20 mPa·s
[1]; 313.2 K
  surface tension liquid-gas: 44.1 ± 0.6 mN/m
  viscosity: 188.64 ± 6.6 mPa·s
[1]; 323.2 K
  surface tension liquid-gas: 42.8 ± 0.6 mN/m
  viscosity: 105.98 ± 5.5 mPa·s

## OCCNCCO [diethanolamine] + O
[2]; 303.2 K, w1 = 0.2
  surface tension liquid-gas: 63.3 ± 0.6 mN/m
  viscosity: 1.64 ± 0.12 mPa·s
[2]; 303.2 K, w1 = 0.3
  surface tension liquid-gas: 60.5 ± 0.6 mN/m
  viscosity: 2.57 ± 0.13 mPa·s
[2]; 303.2 K, w1 = 0.4
  surface tension liquid-gas: 58.3 ± 0.6 mN/m
  viscosity: 4.27 ± 0.14 mPa·s
[2]; 303.2 K, w1 = 1
  surface tension liquid-gas: 46 ± 0.6 mN/m
  viscosity: 381.21 ± 20 mPa·s
[2]; 313.2 K, w1 = 0.2
  surface tension liquid-gas: 62.1 ± 0.6 mN/m
  viscosity: 1.29 ± 0.12 mPa·s
[2]; 313.2 K, w1 = 0.3
  surface tension liquid-gas: 58.8 ± 0.6 mN/m
  viscosity: 1.98 ± 0.13 mPa·s
[2]; 313.2 K, w1 = 0.4
  surface tension liquid-gas: 56.6 ± 0.6 mN/m
  viscosity: 3.01 ± 0.13 mPa·s
[2]; 313.2 K, w1 = 1
  surface tension liquid-gas: 44.1 ± 0.6 mN/m
  viscosity: 188.64 ± 6.6 mPa·s
[2]; 323.2 K, w1 = 0.2
  surface tension liquid-gas: 59.9 ± 0.6 mN/m
  viscosity: 1.03 ± 0.12 mPa·s
[2]; 323.2 K, w1 = 0.3
  surface tension liquid-gas: 57.4 ± 0.6 mN/m
  viscosity: 1.42 ± 0.12 mPa·s
[2]; 323.2 K, w1 = 0.4
  surface tension liquid-gas: 54.7 ± 0.6 mN/m
  viscosity: 2.27 ± 0.13 mPa·s
[2]; 323.2 K, w1 = 1
  surface tension liquid-gas: 42.8 ± 0.6 mN/m
  viscosity: 105.98 ± 5.5 mPa·s

## CO [methanol]
[1]; 303.2 K
  surface tension liquid-gas: 21.7 ± 0.6 mN/m
  viscosity: 0.51 ± 0.12 mPa·s
[1]; 313.2 K
  surface tension liquid-gas: 20.9 ± 0.6 mN/m
  viscosity: 0.44 ± 0.12 mPa·s
[1]; 323.2 K
  surface tension liquid-gas: 20 ± 0.6 mN/m
  viscosity: 0.39 ± 0.12 mPa·s

## O [water]
[1]; 303.2 K
  surface tension liquid-gas: 71.1 ± 0.6 mN/m
  viscosity: 0.8 ± 0.12 mPa·s
[1]; 313.2 K
  surface tension liquid-gas: 69.4 ± 0.6 mN/m
  viscosity: 0.65 ± 0.12 mPa·s
[1]; 323.2 K
  surface tension liquid-gas: 67.7 ± 0.6 mN/m
  viscosity: 0.55 ± 0.12 mPa·s

## O [water] + NCCO
[2]; 303.2 K, w2 = 0
  surface tension liquid-gas: 71.1 ± 0.6 mN/m
  viscosity: 0.8 ± 0.12 mPa·s
[2]; 313.2 K, w2 = 0
  surface tension liquid-gas: 69.4 ± 0.6 mN/m
  viscosity: 0.65 ± 0.12 mPa·s
[2]; 323.2 K, w2 = 0
  surface tension liquid-gas: 67.7 ± 0.6 mN/m
  viscosity: 0.55 ± 0.12 mPa·s

## O [water] + OCCNCCO
[2]; 303.2 K, w2 = 0
  surface tension liquid-gas: 71.1 ± 0.6 mN/m
  viscosity: 0.8 ± 0.12 mPa·s
[2]; 313.2 K, w2 = 0
  surface tension liquid-gas: 69.4 ± 0.6 mN/m
  viscosity: 0.65 ± 0.12 mPa·s
[2]; 323.2 K, w2 = 0
  surface tension liquid-gas: 67.7 ± 0.6 mN/m
  viscosity: 0.55 ± 0.12 mPa·s
